One block for each molecule: values may come before it.
Legend:
[1] = biological target: dipeptidyl peptidase-4 (DPP-4) (UniProt P27487)
[2] = tested on: impaired glucose tolerance (IGT) mice; experiment: Oral glucose tolerance test in impaired glucose tolerance (IGT) mice; format: in vivo, mouse; parameters: AUC of Day 1, Blood glucose level (120 min): unit not given beside the values; conditions: for Blood Glucose Value of 30 min: 30 min after 2.5 g/kg glucose gavage; for Blood Glucose Value of 30 min / Blood Glucose Value of 60 min / Blood Glucose Value of 90 min / Blood Glucose Value of 120 min / Fasting Blood Glucose Level: M ± SD, n = 8; for Blood Glucose Value of 60 min: 60 min after 2.5 g/kg glucose gavage; for Blood Glucose Value of 90 min: 90 min after 2.5 g/kg glucose gavage; for Blood Glucose Value of 120 min: 120 min after 2.5 g/kg glucose gavage
Procedure: After in vitro experiments were conducted to investigate the DPP-4 inhibition ability and receptor affinity of GLP-1RAs, further in vivo experiments were conducted to compare the hypoglycemic effects of GLP-1RAs on impaired glucose tolerance (IGT) mice. The model of IGT mice was established by a one-week injection of streptozotocin, compared with the normal glucose tolerance (NGT) group, the increase in blood glucose in the IGT group after intragastric glucose administration was statistically significant, and the increase in blood glucose in each experimental group was similar after grouping (as shown in Table A2). Each group was fasted for 9 h before the last administration, fasting blood glucose (FBG) was measured one hour after administration, and then an oral glucose tolerance test (OGTT) was performed.
After fasting for 9 h, the OGTT was performed again the next day. The duration of GLP-1RAs was measured using the second day’s OGTT. […] The blood glucose level of the G1 group was lower than that of the vehicle group at each time point, and the difference was statistically significant. […] The blood sugar of IGT mice can be well controlled at a level equivalent to that of NGT mice, and the effect time of the drug was more than 24 h.
Male KM mice age 6–8 weeks with weight of 18–25 g were selected and injected with STZ at a dose of 40 mg/kg per mouse to establish mouse model of IGT. One week after the injection, OGTT was performed. Blood was collected from the tail tip of each mouse to measure the blood glucose concentration. Mice with blood glucose level increase greater than 200% after intragastric administration of glucose were selected. […] The NGT and vehicle groups were treated with normal saline, and the other groups were treated with the corresponding protein solution diluted to 20 µmol/L with normal saline. Each mouse was injected with 25 µL/10 g body weight. The FBG of each group was measured one hour after the last administration, and then 2.5 g/kg glucose solution was administered by gavage immediately, and blood glucose was measured at 30, 60, 90, and 120 min after gavage. The FBG was measured the same time the next day, and the glucose solution was administered by gavage again at 2.5 g/kg. Blood glucose was measured 30, 60, 90, and 120 min after gavage. The statistical software GraphPad Prism 8.0, was used to process the data. The blood glucose level at each time point was compared between the groups using two-way analysis of variance. p < 0.05 was considered statistically different.

[3] = first day OGTT, 20 µmol/L protein, 25 µL/10 g injected

Sequence of UniProt P27487 (P27487 whole entry): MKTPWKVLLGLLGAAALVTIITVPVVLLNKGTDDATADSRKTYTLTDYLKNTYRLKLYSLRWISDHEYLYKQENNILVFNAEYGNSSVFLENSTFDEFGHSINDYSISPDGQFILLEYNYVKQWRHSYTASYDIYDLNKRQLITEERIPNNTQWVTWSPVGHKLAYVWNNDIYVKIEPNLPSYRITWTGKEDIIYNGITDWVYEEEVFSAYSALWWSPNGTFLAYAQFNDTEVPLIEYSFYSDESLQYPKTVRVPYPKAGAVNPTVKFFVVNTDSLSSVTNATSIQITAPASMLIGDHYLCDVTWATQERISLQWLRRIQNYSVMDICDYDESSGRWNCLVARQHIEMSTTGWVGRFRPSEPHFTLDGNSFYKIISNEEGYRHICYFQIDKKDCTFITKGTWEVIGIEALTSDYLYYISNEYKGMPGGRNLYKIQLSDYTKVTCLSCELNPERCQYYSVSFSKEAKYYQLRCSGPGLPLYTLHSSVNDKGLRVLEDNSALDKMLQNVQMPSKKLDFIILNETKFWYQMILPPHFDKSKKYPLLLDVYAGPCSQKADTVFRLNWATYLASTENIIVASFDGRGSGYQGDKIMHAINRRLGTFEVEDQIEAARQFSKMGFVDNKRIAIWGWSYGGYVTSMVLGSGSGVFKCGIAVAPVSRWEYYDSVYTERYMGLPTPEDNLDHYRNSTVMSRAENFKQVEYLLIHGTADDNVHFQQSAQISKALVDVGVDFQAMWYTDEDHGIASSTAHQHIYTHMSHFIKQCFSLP

Molecule: G2 (GLP-1 receptor agonist: antiparallel β lamellar domain of superoxide dismutase at the amino terminus of GLP-1) (designed binder)
Area Under Curve of the residual percentage (ELISA) during digestion with excess DPP-4, up to 24 h, 30 °C, PBS pH 7.4 [1]: 1.34

Molecule: G4 (GLP-1 receptor agonist: GLP-1 Ser18Cys with the antiparallel β lamellar domain of superoxide dismutase at the C-terminus, without the linker) (designed binder)
Area Under Curve of the residual percentage (ELISA) during digestion with excess DPP-4, up to 24 h, 30 °C, PBS pH 7.4 [1]: 2.47

Molecule: CC[C@H](C)[C@H](NC(=O)[C@H](Cc1ccccc1)NC(=O)[C@H](CCC(=O)O)NC(=O)[C@H](CCCCN)NC(=O)[C@H](C)NC(=O)[C@H](C)NC(=O)[C@H](CCC(N)=O)NC(=O)CNC(=O)[C@H](CCC(=O)O)NC(=O)[C@H](CC(C)C)NC(=O)[C@H](Cc1ccc(O)cc1)NC(=O)[C@H](CO)NC(=O)[C@H](CO)NC(=O)[C@@H](NC(=O)[C@H](CC(=O)O)NC(=O)[C@H](CO)NC(=O)[C@@H](NC(=O)[C@H](Cc1ccccc1)NC(=O)[C@@H](NC(=O)CNC(=O)[C@H](CCC(=O)O)NC(=O)[C@H](C)NC(=O)[C@@H](N)Cc1c[nH]cn1)[C@@H](C)O)[C@@H](C)O)C(C)C)C(=O)N[C@@H](C)C(=O)N[C@@H](Cc1c[nH]c2ccccc12)C(=O)N[C@@H](CC(C)C)C(=O)N[C@H](C(=O)N[C@@H](CCCCN)C(=O)NCC(=O)N[C@@H](CCCNC(=N)N)C(N)=O)C(C)C [GLP-1, Glucagon-like peptide-1]
AUC of Day 1, Blood glucose level (120 min) ([2]; first day OGTT in IGT mice, 0-120 min, vehicle 60.54, NGT 40.57): 47.54
Blood Glucose Value of 30 min [2, 3]: 18.2 ± 1.9 mmol/L
Blood Glucose Value of 60 min [2, 3]: 13.6 ± 1.7 mmol/L
Blood Glucose Value of 90 min [2, 3]: 9.3 ± 2.3 mmol/L
Blood Glucose Value of 120 min [2, 3]: 7.9 ± 1.3 mmol/L
Fasting Blood Glucose Level ([2]; first day, IGT mice (STZ, male KM), fasted 9 h, one hour after last administration, 20 µmol/L protein, 25 µL/10 g injected): 4.9 ± 0.7 mmol/L
Fasting Blood Glucose Level ([2]; second day (no new dose), IGT mice fasted 9 h): 5.9 ± 1.1 mmol/L
Blood Glucose Value of 30 min ([2]; second day OGTT): 25.1 ± 4.1 mmol/L
Blood Glucose Value of 60 min ([2]; second day OGTT): 18.2 ± 3.4 mmol/L
Blood Glucose Value of 90 min ([2]; second day OGTT): 11.6 ± 1.9 mmol/L
Blood Glucose Value of 120 min ([2]; second day OGTT): 9.2 ± 1.3 mmol/L

Continued, values first:

Area Under Curve of the residual percentage (ELISA) during digestion with excess DPP-4, up to 24 h, 30 °C, PBS pH 7.4 [1]: 5.14
Molecule: G1 (GLP-1 receptor agonist: GLP-1 Val33Cys, linker GCGGGGGG, antiparallel β lamellar domain of superoxide dismutase at the C-terminus) (designed binder)

Area Under Curve of the residual percentage (ELISA) during digestion with excess DPP-4, up to 24 h, 30 °C, PBS pH 7.4 [1]: 1.02
Molecule: human GLP-1 (glucagon-like peptide-1)

From PMC9230455 (Pharmaceuticals, 2022)
